Source: patent US8871753B2, “Macrocyclic compounds and their use as kinase inhibitors” (Incyte Corporation, priority 2008, dated 2014)
Where a name gives a salt, the structure may show the parent alone. Read-outs that look alike come from different tables or passages of the source.

Key:
Format in all cases: biochemical
[1] = target: T1, Recombinant Human Anaplastic Lymphoma Kinase (Homo sapiens, UniProt Q9UM73); assay: ALK HTRF kinase assay
T1 construct: purchased Invitrogen, Carlsbad, Calif
Method in brief: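 Biotinylated peptide substrate, recombinant human ALK; detection via europium-chelate antibody to phosphotyrosine paired with streptavidin-APC. Potency expressed as IC50 from four-parameter curve fitting.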

[2] = target: T2, human JAK1 (a.a. 837-1142) (Homo sapiens, UniProt P23458); assay: In vitro JAK kinase assay (HTRF, phosphorylation of a biotinylated peptide), JAK1; settings: read-out: JAK1 IC50
T2 construct: human JAK1 (a.a. 837-1142); His tag (N); made in house; host or cells: insect cells (baculovirus)
T2 sequence (P23458 849-1154): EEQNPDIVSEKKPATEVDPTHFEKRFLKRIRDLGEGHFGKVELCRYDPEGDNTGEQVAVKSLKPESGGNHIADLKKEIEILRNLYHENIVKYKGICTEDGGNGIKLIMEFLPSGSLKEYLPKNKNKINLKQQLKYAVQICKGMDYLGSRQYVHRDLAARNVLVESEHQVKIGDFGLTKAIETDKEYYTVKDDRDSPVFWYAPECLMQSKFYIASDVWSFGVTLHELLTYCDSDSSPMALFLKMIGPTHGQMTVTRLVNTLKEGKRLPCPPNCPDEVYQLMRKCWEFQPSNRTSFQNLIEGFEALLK
Method in brief: (§1)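 Kinase reactions ran at room temperature for 1 h with ATP matched per isoform (JAK1 90 μM, JAK2 30 μM, JAK3 3 μM). After an EDTA stop, the phosphorylated biotin-peptide was read by HTRF using Eu-Py20 and SA-APC after 40 min binding.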

[3] = target: T3, human JAK2 (a.a. 828-1132) (Homo sapiens, UniProt O60674); assay: In vitro JAK kinase assay (HTRF, phosphorylation of a biotinylated peptide), JAK2
T3 construct: JAK2 (a.a. 828-1132); His tag (N); made in house; host or cells: insect cells (baculovirus)
T3 sequence (O60674 828-1132): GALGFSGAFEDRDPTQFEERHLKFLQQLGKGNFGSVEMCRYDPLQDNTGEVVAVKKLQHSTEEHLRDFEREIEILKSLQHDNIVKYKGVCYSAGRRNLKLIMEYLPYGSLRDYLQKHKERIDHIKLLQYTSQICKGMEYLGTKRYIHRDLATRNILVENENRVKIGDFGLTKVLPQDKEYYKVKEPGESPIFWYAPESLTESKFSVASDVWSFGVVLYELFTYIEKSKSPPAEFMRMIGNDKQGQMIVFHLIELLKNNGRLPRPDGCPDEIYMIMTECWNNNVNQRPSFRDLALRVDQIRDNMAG
Method in brief: as §1

[4] = target: TYK2 (Homo sapiens, UniProt P29597); assay: TYK2 kinase inhibition (Table A1)
Chain of TYK2 (P29597 whole entry): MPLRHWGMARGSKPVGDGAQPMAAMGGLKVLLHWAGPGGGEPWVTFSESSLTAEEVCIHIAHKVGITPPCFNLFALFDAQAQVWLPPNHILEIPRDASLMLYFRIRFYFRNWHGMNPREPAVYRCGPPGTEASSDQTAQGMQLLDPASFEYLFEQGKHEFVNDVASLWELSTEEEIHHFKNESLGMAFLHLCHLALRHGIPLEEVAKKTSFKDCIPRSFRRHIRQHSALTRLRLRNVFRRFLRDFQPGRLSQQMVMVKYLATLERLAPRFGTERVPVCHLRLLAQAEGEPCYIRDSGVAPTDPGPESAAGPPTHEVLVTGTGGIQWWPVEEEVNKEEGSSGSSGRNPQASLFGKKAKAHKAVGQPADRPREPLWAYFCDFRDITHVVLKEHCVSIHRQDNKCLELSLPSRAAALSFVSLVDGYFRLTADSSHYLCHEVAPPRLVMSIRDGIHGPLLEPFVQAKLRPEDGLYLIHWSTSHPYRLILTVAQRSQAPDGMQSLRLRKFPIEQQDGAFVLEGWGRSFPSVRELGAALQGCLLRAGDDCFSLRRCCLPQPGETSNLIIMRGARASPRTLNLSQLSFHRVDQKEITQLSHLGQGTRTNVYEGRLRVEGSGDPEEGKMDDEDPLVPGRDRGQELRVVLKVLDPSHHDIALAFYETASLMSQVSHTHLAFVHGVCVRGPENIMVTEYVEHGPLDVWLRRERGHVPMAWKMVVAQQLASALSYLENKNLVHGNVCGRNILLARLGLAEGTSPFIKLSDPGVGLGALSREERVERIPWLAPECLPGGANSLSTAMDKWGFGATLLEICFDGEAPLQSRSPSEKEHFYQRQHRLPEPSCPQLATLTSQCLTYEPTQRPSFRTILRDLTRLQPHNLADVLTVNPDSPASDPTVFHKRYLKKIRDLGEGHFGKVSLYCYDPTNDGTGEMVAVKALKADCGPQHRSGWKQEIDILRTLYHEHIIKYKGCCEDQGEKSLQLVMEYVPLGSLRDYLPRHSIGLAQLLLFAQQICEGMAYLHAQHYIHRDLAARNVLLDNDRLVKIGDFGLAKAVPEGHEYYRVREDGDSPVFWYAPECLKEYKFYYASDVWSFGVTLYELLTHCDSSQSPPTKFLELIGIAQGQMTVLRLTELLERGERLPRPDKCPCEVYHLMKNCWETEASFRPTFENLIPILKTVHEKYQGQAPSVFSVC

[5] = target: T4, human JAK3 (a.a. 781-1124) (Homo sapiens, UniProt P52333); assay: In vitro JAK kinase assay (HTRF, phosphorylation of a biotinylated peptide), JAK3
T4 construct: JAK3 (a.a. 781-1124); His tag (N); made in house; host or cells: insect cells (baculovirus)
T4 sequence (P52333 781-1124): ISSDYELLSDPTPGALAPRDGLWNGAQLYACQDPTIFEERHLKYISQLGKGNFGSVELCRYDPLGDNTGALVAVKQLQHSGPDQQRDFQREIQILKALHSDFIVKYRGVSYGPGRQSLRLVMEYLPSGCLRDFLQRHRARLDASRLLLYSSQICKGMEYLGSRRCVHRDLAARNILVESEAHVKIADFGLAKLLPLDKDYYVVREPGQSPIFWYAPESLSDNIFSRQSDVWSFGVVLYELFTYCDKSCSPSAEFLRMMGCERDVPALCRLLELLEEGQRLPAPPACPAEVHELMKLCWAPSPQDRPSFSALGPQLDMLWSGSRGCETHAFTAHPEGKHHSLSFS
Method in brief: as §1

[6] = compound at a concentration of 500 nM or 1 mM (not specified), cells shown as percentage
[7] = compound at 500 nM or 1 mM, 90 μM ATP
[8] = method AA1 (90 μM ATP) or AA2 (1000 μM ATP), not stated per value
[9] = method AA1 (30 μM ATP) or AA2 (1000 μM ATP), not stated per value
[10] = method AA1 (3 μM ATP) or AA2 (1000 μM ATP), not stated per value

T1 sequence (Q9UM73 19-1620): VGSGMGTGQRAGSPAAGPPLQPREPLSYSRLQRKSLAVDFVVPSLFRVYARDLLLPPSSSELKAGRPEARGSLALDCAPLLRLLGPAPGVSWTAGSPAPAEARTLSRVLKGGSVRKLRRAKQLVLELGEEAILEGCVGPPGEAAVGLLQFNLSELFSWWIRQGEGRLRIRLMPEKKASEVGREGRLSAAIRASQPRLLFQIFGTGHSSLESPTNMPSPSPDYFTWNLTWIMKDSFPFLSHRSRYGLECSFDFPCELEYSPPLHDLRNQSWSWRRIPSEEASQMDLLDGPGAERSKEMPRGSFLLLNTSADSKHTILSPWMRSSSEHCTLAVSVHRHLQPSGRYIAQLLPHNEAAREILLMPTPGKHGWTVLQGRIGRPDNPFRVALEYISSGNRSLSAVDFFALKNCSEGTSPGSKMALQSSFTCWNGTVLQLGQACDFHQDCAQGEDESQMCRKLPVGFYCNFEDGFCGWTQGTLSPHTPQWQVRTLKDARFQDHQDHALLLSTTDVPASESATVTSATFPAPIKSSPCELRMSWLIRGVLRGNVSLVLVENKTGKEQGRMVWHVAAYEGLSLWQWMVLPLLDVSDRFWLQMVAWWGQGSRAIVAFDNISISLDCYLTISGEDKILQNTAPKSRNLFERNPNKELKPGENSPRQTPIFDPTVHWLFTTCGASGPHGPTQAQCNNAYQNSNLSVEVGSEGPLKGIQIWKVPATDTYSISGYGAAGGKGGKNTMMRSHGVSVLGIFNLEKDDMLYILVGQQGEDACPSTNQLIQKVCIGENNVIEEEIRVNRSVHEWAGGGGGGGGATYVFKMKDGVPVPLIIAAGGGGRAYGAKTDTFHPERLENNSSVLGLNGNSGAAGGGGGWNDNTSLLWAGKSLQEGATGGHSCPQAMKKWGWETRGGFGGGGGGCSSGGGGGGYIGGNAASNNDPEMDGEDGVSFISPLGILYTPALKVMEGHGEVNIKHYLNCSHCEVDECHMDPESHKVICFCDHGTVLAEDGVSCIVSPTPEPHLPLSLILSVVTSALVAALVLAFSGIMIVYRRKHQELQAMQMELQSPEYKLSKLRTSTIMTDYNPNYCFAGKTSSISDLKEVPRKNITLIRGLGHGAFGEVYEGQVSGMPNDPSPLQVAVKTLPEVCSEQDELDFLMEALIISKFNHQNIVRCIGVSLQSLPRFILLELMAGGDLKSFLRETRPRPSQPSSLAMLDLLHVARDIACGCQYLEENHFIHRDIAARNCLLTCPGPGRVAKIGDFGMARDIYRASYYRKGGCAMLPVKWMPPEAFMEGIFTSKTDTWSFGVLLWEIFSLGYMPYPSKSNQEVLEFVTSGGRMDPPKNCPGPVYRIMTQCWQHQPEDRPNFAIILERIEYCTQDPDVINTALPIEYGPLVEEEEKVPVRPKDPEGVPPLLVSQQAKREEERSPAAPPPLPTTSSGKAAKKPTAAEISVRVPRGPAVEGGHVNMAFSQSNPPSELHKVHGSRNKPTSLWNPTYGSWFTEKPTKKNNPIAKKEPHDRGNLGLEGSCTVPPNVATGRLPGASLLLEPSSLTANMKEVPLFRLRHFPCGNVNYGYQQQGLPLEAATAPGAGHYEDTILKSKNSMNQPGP

ALK % of inhibition at a concentration of 500 nM or 1 mM [1, 6] [%] | IC50 ([2]; Table B1) [µM] | IC50 ([3]; Table B1) [µM] | IC50 ([4]; Table B1) [µM] | IC50 ([5]; Table B1) [µM] | ALK % of inhibition at a concentration of 500 nM or 1 mM [1, 7] [%] | IC50 [2, 8] [µM] | IC50 [3, 9] [µM] | IC50 [4] [µM] | IC50 [5, 10] [µM] | Compound | further results
32 | 0.077 | 0.171 | 0.025 | 0.046 | – | – | – | – | – | Cc1cnc(NC(=O)Nc2ccc3cc2CCc2cccc(c2)Nc2ncc(Cl)c(n2)N3)s1 [Example B248, N-[6-Chloro-2,4,8,22-tetraazatetracyclo[14.3.1.1(3,7).1(9,13)]docosa-1(20),3(22),4,6,9(21),10,12,16,18-nonaen-12-yl]-N′-(5-methyl-1,3-thiazol-2-yl)urea trifluoroacetate] | –
– | 0.039 | 0.01 | 0.289 | 0.161 | – | – | – | – | – | COc1cccc(CN2CCN(Cc3cc4cc(c3)Nc3nc(ncc3Cl)Nc3cccc(c3)CC4)CC2)c1 [Example B198, 6-Chloro-11-{[4-(3-methoxybenzyl)piperazin-1-yl]methyl}-2,4,8,22-tetraazatetracyclo[14.3.1.1(3,7).1(9,13)]docosa-1(20),3(22),4,6,9(21),10,12,16,18-nonaene tris(trifluoroacetate)] | IC50 ([1]; Table B1, cells without percent sign): > 10 µM
– | – | – | – | – | – | – | – | – | – | Clc1cnc2nc1Nc1cccc(c1)CNc1cccc(c1)N2 [Example D17, 6-Chloro-2,4,8,15,22-pentaazatetracyclo[14.3.1.1(3,7).1(9,13)]docosa-1(20),3(22),4,6,9(21),10,12,16,18-nonaene bis(trifluoroacetate)] | IC50 ([1]; Table D1, 90 μM ATP): > 1 µM; IC50 ([2]; Table D1): 0.063 µM; IC50 ([3]; Table D1): 0.032 µM; IC50 ([4]; Table D1): 0.077 µM; IC50 ([5]; Table D1): 0.165 µM
50 | 0.082 | 0.089 | 0.059 | > 0.2 | – | – | – | – | – | O=C(Nc1ccc2cc1CCc1cccc(c1)Nc1ncc(Cl)c(n1)N2)N1CCN(c2ccccn2)CC1 [Example B290, N-[6-Chloro-2,4,8,22-tetraazatetracyclo[14.3.1.1(3,7).1(9,13)]docosa-1(20),3(22),4,6,9(21),10,12,16,18-nonaen-12-yl]-4-pyridin-2-ylpiperazine-1-carboxamide bis(trifluoroacetate)] | –
– | – | – | – | – | 30 | 0.03 | 0.029 | 0.066 | 0.035 | O=C(Nc1ccc2cc1CCc1cccc(c1)Nc1ncc(Cl)c(n1)N2)C1CCN(C(=O)c2ccco2)CC1 [Example A32, N-[6-Chloro-2,4,8,22-tetraazatetracyclo[14.3.1.1(3,7).1(9,13)]docosa-1(20), 3(22),4,6,9(21),10,12,16,18-nonaen-12-yl]-1-(2-furoyl)piperidine-4-carboxamide trifluoroacetate] | –
74 | 0.03 | 0.18 | 0.082 | > 0.4 | – | – | – | – | – | COc1ccc(N2CCN(C(=O)Nc3ccc4cc3CCc3cncc(c3)Nc3ncc(Cl)c(n3)N4)CC2)cc1 [Example B299, N-[6-Chloro-2,4,8,18,22-pentaazatetracyclo[14.3.1.1(3,7).1(9,13)]docosa-1(20),3(22),4,6,9(21),10,12,16,18-nonaen-12-yl]-4-(4-methoxyphenyl)piperazine-1-carboxamide tris(trifluoroacetate)] | –
– | 0.024 | 0.061 | 0.044 | > 0.4 | – | – | – | – | – | N#Cc1ccc(N2CCN(C(=O)Nc3ccc4cc3CCc3cncc(c3)Nc3ncc(Cl)c(n3)N4)CC2)nc1 [Example B310, N-[6-Chloro-2,4,8,18,22-pentaazatetracyclo[14.3.1.1(3,7).1(9,13)]docosa-1(20),3(22),4,6,9(21),10,12,16,18-nonaen-12-yl]-4-(5-cyanopyridin-2-yl)piperazine-1-carboxamide tris(trifluoroacetate)] | ALK % of inhibition at a concentration of 500 nM or 1 mM ([1]; percentage inhibition of the example compound at a concentration of 500 nM or 1 mM (not specified which)): 74%
28 | 0.033 | 0.014 | 0.025 | 0.061 | – | – | – | – | – | O=C(Nc1ccc2cc1CCc1cccc(c1)Nc1ncc(Cl)c(n1)N2)c1cccc(C(F)(F)F)c1 [Example B76, N-[6-Chloro-2,4,8,22-tetraazatetracyclo[14.3.1.1(3,7).1(9,13)]docosa-1(20), 3(22),4,6,9(21),10,12,16,18-nonaen-12-yl]-3-(trifluoromethyl)benzamide trifluoroacetate] | –
– | – | – | – | – | 46 | 0.0097 | 0.085 | 0.098 | > 0.4 | Cc1noc(C)c1S(=O)(=O)N1CCC(CC(=O)Nc2ccc3cc2CCc2cncc(c2)Nc2ncc(Cl)c(n2)N3)CC1 [Example A231, N-[6-chloro-2,4,8,18,22-pentaazatetracyclo[14.3.1.1(3,7).1(9,13)]docosa-1(20),3(22),4,6,9(21),10,12,16,18-nonaen-12-yl]-2-{1-[(3,5-dimethylisoxazol-4-yl)sulfonyl]piperidin-4-yl}acetamide bis(trifluoroacetate)] | –
– | – | – | – | – | 42 | 0.0007 | 0.014 | 0.15 | > 0.2 | O=C(CC1CCN(S(=O)(=O)c2cccnc2)CC1)Nc1ccc2cc1CCc1cncc(c1)Nc1ncc(Cl)c(n1)N2 [Example A202, N-[6-Chloro-2,4,8,18,22-pentaazatetracyclo[14.3.1.1(3,7).1(9,13)]docosa-1(20),3(22),4,6,9(21),10,12,16,18-nonaen-12-yl]-2-[1-(pyridin-3-ylsulfonyl)piperidin-4-yl]acetamide tris(trifluoroacetate)] | –
0.76 | 0.086 | 0.158 | 0.549 | > 10 | – | – | – | – | – | Clc1cnc2nc1Nc1ccc(Nc3nccc(-c4ccccc4)n3)c(c1)CCc1cccc(c1)N2 [Example B279, 6-Chloro-N-(4-phenylpyrimidin-2-yl)-2,4,8,22-tetraazatetracyclo[14.3.1.1(3,7).1(9,13)]docosa-1(20),3(22),4,6,9(21),10,12,16,18-nonaen-12-amine tris(trifluoroacetate)] | –
– | – | – | – | – | – | – | – | – | – | Clc1cnc2nc1Nc1cccc(c1)OCCc1cc(Br)cc(c1)N2 [Example D22, 19-Bromo-6-chloro-14-oxa-2,4,8,23-tetraazatetracyclo[15.3.1.1(3,7).1(9,13)]tricosa-1(21),3(23),4,6,9(22),10,12,17,19-nonaene trifluoroacetate] | IC50 ([1]; Table D1, 90 μM ATP): 0.489 µM; IC50 ([2]; Table D1): 0.0042 µM; IC50 ([3]; Table D1): 0.0079 µM; IC50 ([4]; Table D1): 0.028 µM; IC50 ([5]; Table D1): 0.041 µM
6.1 | 0.025 | 0.027 | 0.089 | 0.182 | – | – | – | – | – | O=C(Nc1ccc2cc1CCc1cccc(c1)Nc1ncc(Cl)c(n1)N2)NC12CC3CC(CC(C3)C1)C2 [Example B127, N-1-Adamantyl-N′-[6-chloro-2,4,8,22-tetraazatetracyclo[14.3.1.1(3,7).1(9,13)]docosa-1(20),3(22),4,6,9(21),10,12,16,18-nonaen-12-yl]urea trifluoroacetate] | –
– | – | – | – | – | 31 | 0.0039 | 0.0075 | 0.011 | 0.034 | CC(C)S(=O)(=O)N1CCC(CC(=O)Nc2ccc3cc2CCc2cncc(c2)Nc2ncc(Cl)c(n2)N3)CC1 [Example A97, N-[6-Chloro-2,4,8,18,22-pentaazatetracyclo[14.3.1.1(3,7).1(9,13)]docosa-1(20),3(22),4,6,9(21),10,12,16,18-nonaen-12-yl]-2-[1-(isopropylsulfonyl)piperidin-4-yl]acetamide bis(trifluoroacetate)] | –
– | – | – | – | – | 24 | 0.0004 | 0.019 | 0.026 | > 0.4 | COc1cccc(N2CCC(CC(=O)Nc3ccc4cc3CCc3cncc(c3)Nc3ncc(Cl)c(n3)N4)CC2)c1C#N [Example A233, N-[6-Chloro-2,4,8,18,22-pentaazatetracyclo[14.3.1.1(3,7).1(9,13)]docosa-1(20),3(22),4,6,9(21),10,12,16,18-nonaen-12-yl]-2-[1-(2-cyano-3-methoxyphenyl)piperidin-4-yl]acetamide tris(trifluoroacetate)] | –
15 | 0.0036 | 0.0074 | 0.017 | 0.039 | – | – | – | – | – | CC(C)(C)OC(=O)N1CC[C@H](NC(=O)Nc2ccc3cc2CCc2cccc(c2)Nc2ncc(Cl)c(n2)N3)C1 [Example B166, tert-Butyl (3S)-3-[({[6-chloro-2,4,8,22-tetraazatetracyclo[14.3.1.1(3,7).1(9,13)]docosa-1(20),3(22),4,6,9(21),10,12,16,18-nonaen-12-yl]amino}carbonyl)amino]pyrrolidine-1-carboxylate] | –
